Data reported in ChEMBL document CHEMBL1201862, “PubChem BioAssay data set” (2004).
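Five compound concentrations were applied to cells in 96-well plates for 48 hours; endpoints were derived by simple linear interpolation of the resulting dose-response curve. GI50 = concentration required for 50% inhibition of growth.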 The source made the active and inactive calls. No stated cut-off is given here; in the data, active = GI50 up to about 1.1 µM and inactive = higher.

Legend:
Assay in all cases: NCI-60 cell line screen, 48 h
A549 = tested on: A549
BT-549 = tested on: BT-549
CCRF-CEM = tested on: CCRF-CEM
COLO 205 = tested on: COLO 205
HCC 2998 = tested on: HCC 2998
HCT-116 = tested on: HCT-116
HOP-62 = tested on: HOP-62
K562 = tested on: K562
LOX IMVI = tested on: LOX IMVI
MDA-MB-231 = tested on: MDA-MB-231
MOLT-4 = tested on: MOLT-4
Malme-3M = tested on: Malme-3M
NCI/ADR-RES = tested on: NCI/ADR-RES
RXF 393 = tested on: RXF 393
SF-539 = tested on: SF-539
SK-MEL-28 = tested on: SK-MEL-28
SK-MEL-2 = tested on: SK-MEL-2
SK-MEL-5 = tested on: SK-MEL-5
U-251 = tested on: U-251
UO-31 = tested on: UO-31

Measured: GI50

CC(C)(C)OC(=O)NC(CSCc1ccc(C(=O)c2ccccc2)cc1)C(=O)N1CCN(CCCCN2c3ccccc3Sc3cc(N=[N+]=[N-])ccc32)CC1 (stereo not given)
inactive: A549 > 100 µM | BT-549 > 100 µM | CCRF-CEM > 100 µM | COLO 205 > 100 µM | HCC 2998 > 100 µM | HCT-116 > 100 µM | HOP-62 > 100 µM | K562 > 100 µM | LOX IMVI > 100 µM | MDA-MB-231 > 100 µM | MOLT-4 > 100 µM | Malme-3M > 100 µM | NCI/ADR-RES > 100 µM | RXF 393 > 100 µM | SF-539 > 100 µM | SK-MEL-28 > 100 µM | SK-MEL-2 > 100 µM | SK-MEL-5 > 100 µM | U-251 > 100 µM | UO-31 > 100 µM
